Assay results published in the NIST ThermoML archive (doi:10.1021/je101178u).
Values joined by “and” are separate entries in the source; they are usually repeats but may differ in a detail not shown here. Equal entries are not always repeated.

Conditions: Fluid (supercritical or subcritical phases); for mass density: Buoyancy - hydrostatic balance with magnetic suspension - one sinker; for viscosity: vibrating wire

CCC [propane]
Conditions	mass density	viscosity
273.15 K, 40.93 kPa	0.80164 kg/m3	0.00744 mPa·s
273.15 K, 51.05 kPa	1.002 kg/m3	0.007443 mPa·s
273.15 K, 100.76 kPa	1.999 kg/m3	0.007443 mPa·s
273.15 K, 149.62 kPa	3.0011 kg/m3	0.007435 mPa·s
273.15 K, 196.97 kPa	3.9945 kg/m3	0.007431 mPa·s
273.15 K, 243.87 kPa	5.0016 kg/m3	0.007424 mPa·s
273.15 K, 289.3 kPa	6.0007 kg/m3	0.007419 mPa·s
273.15 K, 333.56 kPa	6.9977 kg/m3	0.007415 mPa·s
273.15 K, 376.67 kPa	7.9933 kg/m3	0.00741 mPa·s
273.15 K, 420.03 kPa	9.0207 kg/m3	0.007406 mPa·s
273.15 K, 459.55 kPa	9.9815 kg/m3	0.007404 mPa·s
273.15 K, 459.58 kPa	9.9822 kg/m3	0.007403 mPa·s
298.15 K, 44.7 kPa	0.80087 kg/m3	0.008128 mPa·s
298.15 K, 55.55 kPa	0.99693 kg/m3	0.008133 mPa·s
298.15 K, 110.39 kPa	1.9989 kg/m3	0.00813 mPa·s
298.15 K, 164.09 kPa	2.9981 kg/m3	0.008127 mPa·s
298.15 K, 164.66 kPa	3.0089 kg/m3	0.008126 mPa·s
298.15 K, 217.05 kPa	4.0022 kg/m3	0.008127 mPa·s
298.15 K, 217.09 kPa	4.0029 kg/m3	0.008128 mPa·s
298.15 K, 268.78 kPa	5.0013 kg/m3	0.008125 mPa·s
298.15 K, 318.03 kPa	5.9708 kg/m3	0.008125 mPa·s
298.15 K, 369.4 kPa	7.0017 kg/m3	0.00813 mPa·s
298.15 K, 418.44 kPa	8.0059 kg/m3	0.008126 mPa·s
298.15 K, 464.73 kPa	8.9725 kg/m3	0.008128 mPa·s
298.15 K, 498.81 kPa	9.6967 kg/m3	0.008126 mPa·s
298.15 K, 513.59 kPa	10.014 kg/m3	0.008121 mPa·s
298.15 K, 559.93 kPa	11.023 kg/m3	0.008129 mPa·s
298.15 K, 600.75 kPa	11.93 kg/m3	0.008132 mPa·s
298.15 K, 604 kPa	12.003 kg/m3	0.008127 mPa·s
298.15 K, 646.36 kPa	12.965 kg/m3	0.008128 mPa·s and 0.00813 mPa·s
298.15 K, 691.04 kPa	14.002 kg/m3	0.008132 mPa·s
298.15 K, 692.19 kPa	14.029 kg/m3	0.008133 mPa·s
298.15 K, 783.49 kPa	16.228 kg/m3	0.008144 mPa·s
298.15 K, 849.03 kPa	17.879 kg/m3	0.00815 mPa·s
298.15 K, 875.16 kPa	18.556 kg/m3	0.008155 mPa·s
298.15 K, 878.68 kPa	18.648 kg/m3	0.008158 mPa·s
366.15 K, 68.97 kPa	1.0047 kg/m3	0.009907 mPa·s
366.15 K, 136.86 kPa	2.0051 kg/m3	0.009923 mPa·s
366.15 K, 270.35 kPa	4.0067 kg/m3	0.009941 mPa·s
366.15 K, 400.53 kPa	6.0046 kg/m3	0.009956 mPa·s
366.15 K, 527.04 kPa	7.9924 kg/m3	0.009974 mPa·s
366.15 K, 649.96 kPa	9.9702 kg/m3	0.009996 mPa·s
366.15 K, 772.49 kPa	11.99 kg/m3	0.01002 mPa·s
366.15 K, 897.82 kPa	14.109 kg/m3	0.01005 mPa·s
366.15 K, 1004.8 kPa	15.963 kg/m3	0.01007 mPa·s
366.15 K, 1119.8 kPa	18.006 kg/m3	0.0101 mPa·s
366.15 K, 1222.3 kPa	19.872 kg/m3	0.01013 mPa·s
366.15 K, 1738.7 kPa	30.044 kg/m3	0.01032 mPa·s
366.15 K, 2181.8 kPa	40.086 kg/m3	0.01055 mPa·s
366.15 K, 2559.1 kPa	50.015 kg/m3	0.01083 mPa·s
366.15 K, 2883 kPa	60.029 kg/m3	0.01114 mPa·s
366.15 K, 3154.4 kPa	70.033 kg/m3	0.01149 mPa·s
366.15 K, 3381.1 kPa	80.175 kg/m3	0.0119 mPa·s
366.15 K, 3559.5 kPa	90.05 kg/m3	0.01232 mPa·s
366.15 K, 3704.1 kPa	100.205 kg/m3	0.01282 mPa·s
366.15 K, 3704.9 kPa	100.267 kg/m3	0.01282 mPa·s
373.15 K, 70 kPa	1.0004 kg/m3	0.01008 mPa·s
373.15 K, 139.24 kPa	2.0008 kg/m3	0.0101 mPa·s
373.15 K, 275.58 kPa	4.0037 kg/m3	0.01012 mPa·s
373.15 K, 408.76 kPa	6.0045 kg/m3	0.01014 mPa·s
373.15 K, 538.6 kPa	7.9996 kg/m3	0.01017 mPa·s
373.15 K, 666.93 kPa	10.017 kg/m3	0.0102 mPa·s
373.15 K, 733.66 kPa	11.085 kg/m3	0.01021 mPa·s
373.15 K, 917.57 kPa	14.099 kg/m3	0.01026 mPa·s
373.15 K, 1023.3 kPa	15.881 kg/m3	0.01029 mPa·s
373.15 K, 1147.8 kPa	18.031 kg/m3	0.01033 mPa·s
373.15 K, 1248 kPa	19.801 kg/m3	0.01036 mPa·s
373.15 K, 1781.8 kPa	29.954 kg/m3	0.01058 mPa·s
373.15 K, 1781.9 kPa	29.957 kg/m3	0.01058 mPa·s
373.15 K, 2244.2 kPa	39.982 kg/m3	0.01083 mPa·s
373.15 K, 2244.5 kPa	39.99 kg/m3	0.01084 mPa·s
373.15 K, 2640.8 kPa	49.856 kg/m3	0.01113 mPa·s
373.15 K, 2640.9 kPa	49.858 kg/m3	0.01113 mPa·s
373.15 K, 2984.3 kPa	59.751 kg/m3	0.01146 mPa·s
373.15 K, 2984.4 kPa	59.753 kg/m3	0.01146 mPa·s
373.15 K, 3288.7 kPa	70.03 kg/m3	0.01186 mPa·s
373.15 K, 3289 kPa	70.041 kg/m3	0.01186 mPa·s
373.15 K, 3531.3 kPa	79.736 kg/m3	0.01227 mPa·s
373.15 K, 3531.6 kPa	79.746 kg/m3	0.01227 mPa·s
373.15 K, 3739.8 kPa	89.698 kg/m3	0.01273 mPa·s
373.15 K, 3740.2 kPa	89.72 kg/m3	0.01273 mPa·s
373.15 K, 3909.1 kPa	99.505 kg/m3	0.01323 mPa·s
373.15 K, 3909.3 kPa	99.518 kg/m3	0.01323 mPa·s
373.15 K, 4152.5 kPa	118.628 kg/m3	0.01431 mPa·s
373.15 K, 4152.6 kPa	118.636 kg/m3	0.01431 mPa·s
373.15 K, 4314.6 kPa	139.152 kg/m3 and 139.148 kg/m3	0.01561 mPa·s
373.15 K, 4400.6 kPa	157.919 kg/m3	0.01691 mPa·s
373.15 K, 4400.7 kPa	157.947 kg/m3	0.01692 mPa·s
373.15 K, 4432.9 kPa	169.072 kg/m3 and 169.051 kg/m3 and 169.087 kg/m3	0.01772 mPa·s and 0.01773 mPa·s
373.15 K, 4458.2 kPa	181.456 kg/m3 and 181.487 kg/m3	0.01876 mPa·s
373.15 K, 4477.3 kPa	194.68 kg/m3	0.02002 mPa·s
373.15 K, 4477.4 kPa	194.74 kg/m3	0.02003 mPa·s
373.15 K, 4491.9 kPa	207.584 kg/m3	0.02135 mPa·s
373.15 K, 4492 kPa	207.643 kg/m3	0.02135 mPa·s
373.15 K, 4502.7 kPa	218.095 kg/m3 and 218.113 kg/m3	0.02247 mPa·s
373.15 K, 4512.2 kPa	227.171 kg/m3 and 227.14 kg/m3	0.02347 mPa·s
373.15 K, 4515 kPa	229.692 kg/m3	0.02376 mPa·s
